Like-named read-outs stand apart in the source and are kept apart here. Starred links: 1 amine or outer side, 2 acyl side, 3 side chain; linkers in the order of their positions; H or OH if unused. Positions of bridges follow the written chain, without caps; N, C: chain ends. Non-standard residues stand in square brackets, D forms with d. Residues, ends and D or L forms follow the SMILES beside them. *: point of attachment. NMePhe(3-Cl) = CN[C@@H](Cc1cccc(Cl)c1)C(=O)O; NMeF = CN[C@@H](Cc1ccccc1)C(=O)O; NMeI = CC[C@H](C)[C@H](NC)C(=O)O; 3Pal = N[C@@H](Cc1cccnc1)C(=O)O; NMeβAla = CN(CCC(=O)[*:2])[*:1]; NMeL = CN[C@@H](CC(C)C)C(=O)O; NMeV = CN[C@H](C(=O)O)C(C)C; NMeA = CN[C@@H](C)C(=O)O; Piperidide = C1CCN(*)CC1; dNMeA = CN[C@H](C)C(=O)O; Sar = CNCC(=O)O; tBu = CC(C)(C)*
Assays:
[1] = PAMPA (parallel artificial membrane permeability assay); type: in vitro ADME; conditions: PAMPA
Method in brief: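 Artificial membrane was 10% (w/v) egg lecithin plus 0.5% (w/v) cholesterol in dodecane on a PVDF filter. A 10 mM DMSO stock was added at 0.5% (v/v) to donor buffer (50 mM MOPSO, pH 6.5, 5.0% glycocholic acid). After 18 h at 37 °C, LC/MS or LC/UV gave donor and acceptor levels for Pe.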

[2] = Metabolic stability in human hepatic microsome; type: in vitro ADME; conditions: microsomes
[3] = membrane permeation rate (Pe), 50 mM MOPSO buffer pH 6.5 with 5.0% glycocholic acid, 37° C., 18 hours, read-out: iPAMPA Pe
[4] = pH 7.4, human hepatic microsome, NADPH(+), read-out: CL NADPH(+)

SMILES	Papp at 18 hours, 50 µM [1, 3] [×10⁻⁶ cm/s]	microsomal CLint at 1 uM [2, 4] [µL/min/mg]	Papp at 18 hours, 50 µM ([1]; pH 6.5) [×10⁻⁶ cm/s]	microsomal CLint at 1 uM ([2]; human, pH 7.4, CL NADPH(+)) [µL/min/mg]
CC[C@H](C)[C@H]1C(=O)N(C)[C@@H](CC(C)C)C(=O)N[C@H](C(=O)N2CCCCC2)CC(=O)N(C)CC(=O)N[C@@H](CC(C)C)C(=O)N[C@@H]([C@@H](C)O)C(=O)N(C)CC(=O)N(C)[C@@H](Cc2ccccc2)C(=O)N[C@@H](C)C(=O)N(C)[C@@H](Cc2ccccc2)C(=O)N(C)[C@@H](CC(C)C)C(=O)N1C [DP-246] ([Sar]LT[Sar][NMeF]A[NMeF][NMeL][NMeI][NMeL]D-Piperidide; lactam N-11)	41	42		
CC(C)C[C@H]1C(=O)N[C@@H]([C@@H](C)O)C(=O)N[C@@H](COC(C)(C)C)C(=O)N[C@H](C(=O)N2CCCCC2)CC(=O)N(C)CCC(=O)N(C)[C@@H](Cc2ccccc2)C(=O)N(C)[C@@H](CC(C)C)C(=O)N1C [DP-747] ([NMeβAla][NMeF][NMeL][NMeL]TS(tBu)D-Piperidide; lactam N-7)	20	248		
CC(C)C[C@H]1C(=O)N(C)[C@@H](Cc2ccccc2)C(=O)NCC(=O)N(C)[C@@H](Cc2ccccc2)C(=O)N(C)[C@@H](C)C(=O)N[C@@H]([C@@H](C)O)C(=O)N[C@H](C(=O)N(C)[C@@H](Cc2ccccc2)C(=O)N(C)[C@@H](Cc2ccccc2)C(=O)N[C@@H](C)C(=O)N2CCCCC2)CC(=O)N(C)CC(=O)N[C@@H](C(C)C)C(=O)N1C [DP-314] ([Sar]V[NMeL][NMeF]G[NMeF][NMeA]TD[NMeF][NMeF]A-Piperidide; lactam N-9)	49	133		
CC[C@H](C)[C@H]1C(=O)N[C@H](C(=O)N2CCCCC2)CC(=O)N[C@H](C(C)C)C(=O)N[C@@H](CC(C)C)C(=O)N(C)[C@@H](Cc2ccccc2)C(=O)N[C@@H]([C@@H](C)O)C(=O)N(C)[C@@H](C)C(=O)N[C@@H](C(C)C)C(=O)N[C@@H](Cc2ccccc2)C(=O)N(C)[C@@H](CC(C)C)C(=O)N[C@@H](CC(C)C)C(=O)NCC(=O)N1C [DP-216] ([dV]L[NMeF]T[NMeA]VF[NMeL]LG[NMeI]D-Piperidide; lactam N-12)	4.5	43		
CC(C)C[C@@H]1NC(=O)[C@H](Cc2cccnc2)NC(=O)[C@@H]2CCCN2C(=O)[C@H](C)NC(=O)[C@H](CC(C)C)N(C)C(=O)[C@H](Cc2ccccc2)NC(=O)[C@H](C)N(C)C(=O)[C@H](CC(C)C)N(C)C(=O)[C@H](Cc2ccccc2)NC(=O)[C@H](C)N(C)C(=O)C[C@@H](C(=O)N(C)[C@@H](Cc2ccccc2)C(=O)N[C@@H](C)C(=O)N2CCCCC2)NC1=O [DP-599] ([NMeA]F[NMeL][NMeA]F[NMeL]AP[3Pal]LD[NMeF]A-Piperidide; lactam N-11)			28	84
CC(C)C[C@H]1C(=O)NCC(=O)N[C@H](C(=O)N(C)[C@@H](Cc2ccccc2)C(=O)N[C@@H](C)C(=O)N2CCCCC2)CC(=O)N[C@H](C)C(=O)N[C@@H]([C@@H](C)O)C(=O)N(C)[C@@H](C)C(=O)N(C)[C@@H](Cc2ccccc2)C(=O)N[C@@H](C(C)C)C(=O)N(C)[C@@H](Cc2ccccc2)C(=O)N1C [DP-307] ([dA]T[NMeA][NMeF]V[NMeF][NMeL]GD[NMeF]A-Piperidide; lactam N-9)			22	125
CC[C@H](C)[C@H](NC(=O)[C@H](C)N(C)C(=O)[C@@H]1CCCN1C(=O)[C@@H](NC(=O)[C@@H]1CC(=O)N(C)[C@H](C)C(=O)N(C)[C@@H](CC(C)C)C(=O)N(C)[C@@H](Cc2ccccc2)C(=O)N[C@@H](CC(C)C)C(=O)N(C)[C@@H](Cc2cccc(Cl)c2)C(=O)N[C@@H]([C@@H](C)O)C(=O)N(C)[C@@H](Cc2ccccc2)C(=O)N[C@@H](CC(C)C)C(=O)N1)[C@@H](C)CC)C(=O)N1CCCCC1 [DP-942] ([dNMeA][NMeL][NMeF]L[NMePhe(3-Cl)]T[NMeF]LDIP[NMeA]I-Piperidide; lactam N-9)	0.1	23		
CC[C@H](C)[C@@H]1NC(=O)[C@H](CC(C)C)N(C)C(=O)[C@H](Cc2ccccc2)N(C)C(=O)[C@H](CC(C)C)NC(=O)[C@@H](C)NC(=O)C[C@@H](C(=O)N2CCCCC2)NC(=O)[C@H](C)N(C)C(=O)[C@H](C)N(C)C(=O)CN(C)C(=O)[C@H]([C@@H](C)O)NC(=O)[C@H](Cc2ccccc2)N(C)C(=O)[C@H](C(C)C)N(C)C1=O [DP-131] ([dA]L[NMeF][NMeL]I[NMeV][NMeF]T[Sar][NMeA][NMeA]D-Piperidide; lactam N-12)	61	48		
CC[C@H](C)[C@H]1C(=O)N(C)[C@@H](C)C(=O)N[C@H](C(=O)N2CCCCC2)CC(=O)N(C)CC(=O)N[C@@H](COC(C)(C)C)C(=O)N(C)CC(=O)N(C)[C@@H](CC(C)C)C(=O)N[C@@H]([C@@H](C)O)C(=O)N(C)[C@@H](Cc2ccccc2)C(=O)N(C)[C@@H](CC(C)C)C(=O)N1C [DP-76] ([Sar]S(tBu)[Sar][NMeL]T[NMeF][NMeL][NMeI][NMeA]D-Piperidide; lactam N-10)			16	27

From patent US9409952B2, “Peptide-compound cyclization method” (Chugai Seiyaku Kabushiki Kaisha, priority 2011, dated 2016)
